Reference: PubChem BioAssay (NCI)
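Five concentrations, 48 hours, 96-well plates. GI50 is the concentration that inhibits growth by half. TGI is the concentration that stops growth completely.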

Columns and labels:
Assay in all cases: NCI tumour cell line growth inhibition, 48 h
A549 NSCLC = tested on: A549 NSCLC
CAKI-1 renal = tested on: CAKI-1 renal
786-0 renal = tested on: 786-0 renal
SN12C renal = tested on: SN12C renal
SK-OV-3 ovarian = tested on: SK-OV-3 ovarian
MALME-3M melanoma = tested on: MALME-3M melanoma
OVCAR-3 ovarian = tested on: OVCAR-3 ovarian
TK-10 renal = tested on: TK-10 renal
M14 melanoma = tested on: M14 melanoma
PC-3 prostate = tested on: PC-3 prostate

| SMILES | TGI (A549 NSCLC) [µM] | TGI (CAKI-1 renal) [µM] | TGI (786-0 renal) [µM] | TGI (SN12C renal) [µM] | TGI (SK-OV-3 ovarian) [µM] | TGI (MALME-3M melanoma) [µM] | TGI (OVCAR-3 ovarian) [µM] | TGI (TK-10 renal) [µM] | TGI (M14 melanoma) [µM] | GI50 (A549 NSCLC) [µM] | GI50 (M14 melanoma) [µM] | GI50 (786-0 renal) [µM] | GI50 (SN12C renal) [µM] | GI50 (SK-OV-3 ovarian) [µM] | GI50 (MALME-3M melanoma) [µM] | GI50 (PC-3 prostate) [µM] | TGI (PC-3 prostate) [µM] | GI50 (OVCAR-3 ovarian) [µM] | GI50 (TK-10 renal) [µM] | GI50 (CAKI-1 renal) [µM] |
| --- | --- | --- | --- | --- | --- | --- | --- | --- | --- | --- | --- | --- | --- | --- | --- | --- | --- | --- | --- | --- |
| Cc1nc(C(=O)O)c2ccccc2n1 | > 100 | > 100 | > 100 | > 100 | > 100 | > 100 | > 100 | > 100 |  |  |  |  |  |  |  |  |  |  |  |  |
| CC(C)=CC(=O)N(C)C1C2CN3CCC(O2)C13 (configuration not stated) | > 100 | > 100 | > 100 | > 100 | > 100 | > 100 | > 100 | > 100 | > 100 |  |  |  |  |  |  |  |  |  |  |  |
| N#Cc1ccc(C=NC23CC4CC(CC(C4)C2)C3)cc1 | > 100 | > 100 | > 100 | > 100 | > 100 | > 100 | > 100 | > 100 | > 100 |  |  |  |  |  |  |  |  |  |  |  |
| CCCCCCCCCCCCC(Br)C(=O)NCC(N)=O (configuration not stated) | 34.7 |  | 20.9 |  | 59.2 | 28 | 32.1 | 34.7 | 24.6 |  |  |  |  |  |  |  |  |  |  |  |
| O=S(=O)(/C=C/C(=C/c1ccccc1)S(=O)(=O)c1ccccc1)c1ccccc1 | 4.65 | 2.88 | 3.15 | 3.43 | 2.79 | 3.3 | 3.13 | 3.24 | 2.57 |  |  |  |  |  |  |  |  |  |  |  |
| N#CC(C#N)c1ccc(C(=O)N2CCC[C@H]2CO)cc1 | > 100 | > 100 | > 100 | > 100 | > 100 | > 100 | > 100 | > 100 | > 100 |  |  |  |  |  |  |  |  |  |  |  |
| COCCNC(=O)C1C(=O)C(=O)N(CCOC)C1=O (configuration not stated) | > 100 | > 100 | > 100 | > 100 | > 100 | > 100 | > 100 | > 100 | > 100 |  |  |  |  |  |  |  |  |  |  |  |
| Cc1cc(C)nc(NS(=O)(=O)c2ccc(Nc3c4ccccc4nc4c(C(=O)Nc5ccc(S(=O)(=O)N=C(N)N)cc5)cccc34)cc2)n1 | > 100 | > 100 | > 100 | > 100 | > 100 | > 100 | > 100 | > 100 | > 100 |  |  |  |  |  |  |  |  |  |  |  |
| CN(CCNCc1ccccn1)CCNCc1ccccn1 | 8.07 |  | 3.57 | 17.2 | 5.27 | 3.94 | 4.27 | 6.94 | 5.93 | 2.95 | 2.26 | 1.8 | 4.33 | 2.24 | 1.46 | 2.27 | 7.59 | 2.09 | 2.19 |  |
| N#CCN1CCn2c1nsc2=S | > 100 | > 100 | > 100 | > 100 | > 100 |  | > 100 | > 100 | > 100 | > 100 | > 100 | > 100 | > 100 | > 100 |  | > 100 | > 100 | > 100 | > 100 | > 100 |
| NC(=O)NNC(=O)NC12CC3CC(CC(C3)C1)C2 | > 100 | > 100 | > 100 | > 100 | > 100 | > 100 | > 100 | > 100 | > 100 |  |  |  |  |  |  |  |  |  |  |  |
| Cc1ccc(C)c(N2C(=O)C(=O)C(c3nc4ccccc4s3)/C(=N/NC(=O)NN)C2=O)c1 (configuration not stated) | > 100 | > 100 | > 100 | > 100 | > 100 | > 100 | > 100 | > 100 | > 100 |  |  |  |  |  |  |  |  |  |  |  |
| Cc1ccc(S(=O)(=O)N/N=C(/CC(=O)c2c(C)n([O-])c3ccccc3[n+]2=O)C(=O)Nc2ccccc2C)cc1 | > 100 | > 100 | > 100 | > 100 | > 100 | > 100 | > 100 |  | > 100 |  |  |  |  |  |  |  |  |  |  |  |
| O=C(CC1SC(=Nc2ccccc2Cl)NC1=O)Nc1ccc(Cl)cc1Cl (configuration not stated) | > 100 |  | > 100 | > 100 |  | > 100 | > 100 | > 100 | > 100 |  |  |  |  |  |  |  |  |  |  |  |
| N#CC(c1ccccn1)c1nc2ccccc2[nH]1 (configuration not stated) | > 100 | > 100 | > 100 | > 100 | > 100 | > 100 | > 100 | > 100 | > 100 |  |  |  |  |  |  |  |  |  |  |  |
